Results taken from patent publication US20160318933A1, “FUSED PYRAZOLE DERIVATIVE” (SUMITOMO DAINIPPON PHARMA CO., LTD., priority 2013, published 2016).
Where a name gives a salt, the structure may show the parent alone.

Biological target: T1, human brain-derived dopamine D4 receptor (Homo sapiens, UniProt P21917)
T1 construct: expressed in transfected cells; host or cells: CHO (CHO-K1) or HEK293 cells
T1 sequence (P21917 1-419): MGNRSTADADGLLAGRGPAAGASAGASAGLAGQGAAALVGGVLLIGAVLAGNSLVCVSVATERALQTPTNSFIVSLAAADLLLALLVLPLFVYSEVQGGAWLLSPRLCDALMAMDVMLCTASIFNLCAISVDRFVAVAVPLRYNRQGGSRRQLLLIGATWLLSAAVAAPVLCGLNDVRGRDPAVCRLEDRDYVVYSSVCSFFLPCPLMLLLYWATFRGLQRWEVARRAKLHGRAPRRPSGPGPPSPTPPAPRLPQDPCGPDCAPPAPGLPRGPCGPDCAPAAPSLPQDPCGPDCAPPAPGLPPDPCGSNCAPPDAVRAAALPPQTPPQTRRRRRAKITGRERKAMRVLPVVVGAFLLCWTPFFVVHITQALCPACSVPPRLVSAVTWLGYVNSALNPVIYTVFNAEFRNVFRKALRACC
Assay: Agonistic activity in G protein dependent pathway of dopamine D4 receptor (aequorin intracellular calcium luminescence, FDSS)
Assay type: cell-based
Conditions: for EC50: concentration required to achieve a 50% response of Emax, CHO-K1 or HEK293 cells transfected with D4 receptor; for Emax: read-out: Maximal activity on D4 receptor (%)
Text: The G protein dependent pathway is a pathway for transmitting signals in cells via a second messenger by stimulating a G protein through the binding of guanosine triphosphate (GTP) to the G protein. When GPCRs are activated by the binding of a ligand, a G protein binds to the GPCRs, and thereby GTP binds to a Gα subunit that is one of G protein subunits and a Gγβ subunit is dissociated. The activated Gα subunit regulates intracellular cAMP levels by the activation or inhibition of an adenylate cyclase, and regulates intracellular calcium levels by the activation of phospholipase C to transmit signals in cells.
The agonistic activities of the present compounds in the G protein dependent pathway were evaluated on the basis of intracellular calcium levels as follows. CHO-K1 or HEK293 cell lines transfected with D4 receptor genes were seeded in a 384-well plate, and incubated in a CO2 incubator at 37° C. for 24 hours, and then a solution of the present compound in DMSO was added into cells preloaded with coelenterazine to measure the change in luminescent signals with a FDSS (Hamamatsu Photonics K.K.). […] The agonistic activity of the present compound was calculated according to the measured luminescent signals, as the maximal activity (Emax) of the present compound. EC50 value was calculated as the concentration of the present compound required to achieve a 50% response of Emax.

SMILES | EC50 | Emax
Cc1ncc(CN2CCn3nc(-c4ccccn4)c(C)c3C2)c(N)n1 [Example 142] | 68 nM | 82%
Cc1cccnc1-c1cc2n(n1)CCN(Cc1ccc(OC(F)(F)F)c(F)c1)C2 [Example 177, 5-[3-Fluoro-4-(trifluoromethoxy)benzyl]-2-(3-methylpyridin-2-yl)-4,5,6,7-tetrahydropyrazolo[1,5-a]pyrazine monohydrochloride] | 141 nM | 39%
Cc1cccnc1-c1cc2n(n1)CCN(Cc1cnc(C(F)(F)F)nc1N)C2 [Example 84, 5-{[2-(3-Methylpyridin-2-yl)-6,7-dihydropyrazolo[1,5-a]pyrazin-5(4H)-yl]methyl}-2-(trifluoromethyl)pyrimidine-4-amine] | 118 nM | 68%
Cc1ncc(CN2CCn3nc(-c4ccccn4)c(Cl)c3C2)c(N)n1 [Example 172, 5-{[3-Chloro-2-(pyridin-2-yl)-6,7-dihydropyrazolo[1,5-a]pyrazin-5 (4H)-yl]methyl}-2-methylpyrimidine-4-amine] | 90 nM | 53%
Cc1ccc2c(CN3CCn4nc(-c5ncccc5C)cc4C3)n[nH]c2c1 [Example 101] | 78 nM | 67%
Fc1cccnc1-c1cc2n(n1)CCN(Cc1ccc(C(F)(F)F)cn1)C2 [Example 163] | 55 nM | 57%
Cc1cccnc1-c1cc2n(n1)CCN(Cc1cc3c(cn1)OCCC3)C2 [Example 136] | 63 nM | 52%
Cc1cccnc1-c1nn2c(c1C)CN(Cc1ccc(C(F)(F)F)cc1)CC2 [Example 71] | 88 nM | 53%
Cc1cccnc1-c1cc2n(n1)CCN(Cc1ccc(C(F)(F)F)c(C#N)c1)C2 [Example 86] | 52 nM | 85%
Cc1cccnc1-c1nn2c(c1C)CN(Cc1ccc(C(F)(F)F)cn1)CC2 [Example 118] | 106 nM | 59%
O=C1CCc2ccc(CN3CCn4nc(-c5ccccn5)cc4C3)cc2N1 [Example 20] | 51 nM | 42%
Cc1cccnc1-c1cc2n(n1)CCN(Cc1ccc(F)c(C)n1)C2 [Example 135] | 49 nM | 54%
Cc1cccnc1-c1cc2n(n1)CCN(Cc1ccc(C(F)F)nc1)C2 [Example 138] | 50 nM | 49%
Cc1cccnc1-c1cc2n(n1)CCN(Cc1c3ccccc3nn1C)C2 [Example 149] | 107 nM | 53%

These reach a lower EC50. Values come first.

EC50 | Emax | SMILES
32 nM | 65% | Cc1cccnc1-c1cc2n(n1)CCN(Cc1ccc(CF)cn1)C2 [Example 123]
5.3 nM | 73% | Cc1cccnc1-c1cc2n(n1)CCN(Cc1ccc3cn[nH]c3c1)C2 [Example 34]
1.1 nM | 77% | Cc1ccc(CN2CCn3nc(-c4ncccc4C)cc3C2)cc1C#N [Example 99]
43 nM | 43% | Cc1cccnc1-c1cc2n(n1)CCN(Cc1cc3c(cn1)CCC3)C2 [Example 181]
28 nM | 83% | Fc1ccc(CN2CCn3nc(-c4ccccn4)cc3C2)cc1 [Example 2]
19 nM | 84% | Cc1cccnc1-c1cc2n(n1)CCN(Cc1ccc(CF)cc1)C2 [Example 49]
23 nM | 56% | Cc1ccnc(CN2CCn3nc(-c4ccccn4)c(C)c3C2)c1 [Example 93]
20 nM | 79% | Cc1cccnc1-c1cc2n(n1)CCN(Cc1n[nH]c3cc(F)ccc13)C2 [Example 100]
0.7 nM | 89% | Cc1c(-c2ccccn2)nn2c1CN(Cc1ccccc1)CC2 [Example 81]
7 nM | 80% | Cc1cccc(CN2CCn3nc(-c4ncccc4C)cc3C2)c1 [Example 54]
15 nM | 77% | Cc1ccc(CN2CCn3nc(-c4ncccc4C)cc3C2)c(N)n1 [Example 43]
20 nM | 54% | Cc1ccc(CN2CCn3nc(-c4ccccn4)cc3C2)nc1N [Example 98]
